Laboratory results taken from patent US9096593B2, “Compounds and methods for kinase modulation, and indications therefor” (Plexxikon Inc., priority 2009, dated 2015).
Where two headings read alike, the source gives them in different places.

Legend:
[1] = Turbidity assay of relative solubility in aqueous buffers; type: physicochemical; settings: for turbidity threshold (L, M, H) 1.4: pH 1.4 as headed (method: SGF pH 1.5); for turbidity threshold (L, M, H) 4.5: pH 4.5 (SIF); for turbidity threshold (L, M, H) 6.8: pH 6.8 (SIF); for turbidity threshold (L, M, H) 7.4: pH 7.4 (HEPES)
Method: As an indication of relative solubility, the turbidity of compounds in aqueous solutions is assessed. To assess possible compound properties in different physiological compartments, such as stomach, intestine, and blood, a series of aqueous buffers with varying pH is used. Thus each compound is diluted into four different physiologically relevant buffers and solution turbidity is measured by spectrophotometry.
Compounds are dissolved at a concentration of 25 mM in dimethyl sulfoxide, then serially diluted 1:1 into a 96 well plate, diluting 10 times in pure dimethyl sulfoxide, with the final well of each row a dimethyl sulfoxide blank. In an assay plate, 99 μL of appropriate buffer is added to each well, and 1 μL of each sample dilution is added to the buffer, achieving a range of final total concentrations in aqueous solutions having different pH. The buffers used are Simulated Gastric Fluid (SGF-pH 1.5) 0.5M NaCl, pH 1.5; Simulated Intestinal fluid (SIF-pH 4.5 and pH 6.8) 0.05M NaH2PO4, pH 4.5 and 6.8; and Hepes Buffer (HEPES-pH 7.4) 10 mM HEPES, 150 mM NaCl, pH 7.4. Control compounds pyrene, estriol and propranolol HCl are also assessed. Plates are spun and then mixed for 1 minute, and the absorbance is read using a Tecan Safire II to read wavelengths in the visible range (490, 535, and 650 nm) at four locations per well, reflecting the degree of turbidity present. The average optical density for each wavelength in each well is graphed vs. compound concentration, and the concentration at which the curve crosses a threshold O.D. of 0.01 for each wavelength is reported as the endpoint turbidity assay result. The average of the three wavelengths is used to compare turbidity of compounds. Compounds are considered to have low solubility if the threshold concentration is <31.3 μM, moderate solubility if the threshold concentration is 31.3 μM to 250 μM, and high solubility if the threshold concentration is >250 μM.

CYP2C19 = CYP2C19 (Homo sapiens (Human), UniProt P33261); assay: CYP enzyme inhibition, fluorescent substrate
Method: (§1) CYP (Cytochrome P450) enzymes are the major drug metabolizing enzymes present in the liver. The inhibition of CYP enzyme activity (IC50) for each of CYP1A2, CYP2C19, CYP2C9, CYP2D6, CYP3A4(BFC) and CYP3A4(BQ) is determined for compounds, where inhibition of metabolism of a known substrate leads to a decrease in the fluorescence of the metabolized product. The fluorescence of the product is monitored as a function of compound concentration.
(§2) Compounds are dissolved in DMSO to a concentration of 100 mM. These are diluted 1 μL into 82 μL of acetonitrile. An 11 μL aliquot of this solution is then added to 204 μL of cofactor mix (1.3% NADPH Regeneration system Solution A, 1.04% NADPH Regeneration system Solution B from BD Biosciences, 5% acetonitrile and 0.05% DMSO). These are then serially diluted 1:1 (160 μL to 160 μL co-factor mix) for a total of 10 points. A 10 μL aliquot of this final mixture is dispensed into 384 well assay plates and incubated for 10 minutes at 37° C. Enzyme and substrate mix (10 μL; […] CYP1A2/5 μM CEC; 1.0 μmol CYP2C9/75 μM MFC; […] CYP2C19/25 μM CEC; 1.5 μmol CYP2D6/1.5 μM AMMC; 1.0 μmol CYP3A4/50 μM BFC; or 1.0 μmol CYP3A4/40 μM BQ) is added to these assay plates. Assay plates are incubated at 37° C. (CYP1A2-15 min; CYP2C9-45 min; CYP2C19, 2D6 and 3A4-30 min) and read in a Tecan Safire 2 plate reader (CYP1A2, 2C19 and 3A4 409 ex/460 em; CYP2C9 and 2D6409 ex/530 em). The signal versus compound concentration is used to determine the IC50. The enzymes and substrates for this assay are obtained from BD Biosciences.

CYP2C9 = CYP2C9 (Homo sapiens (Human), UniProt P11712); assay: CYP enzyme inhibition, fluorescent substrate
Method: as §1, §2

CYP1A2 = CYP1A2 (Homo sapiens (Human), UniProt P05177); assay: CYP enzyme inhibition, fluorescent substrate; settings: human, 15 min
Method: as §1, §2

CYP3A4(BFC) = CYP3A4(BFC) (Homo sapiens (Human), UniProt P08684); assay: CYP enzyme inhibition, fluorescent substrate
Method: as §1, §2

CYP3A4(BQ) = CYP3A4(BQ) (Homo sapiens (Human), UniProt P08684); assay: CYP enzyme inhibition, fluorescent substrate; settings: read-out: Cyp IC50 (μM) 3A4(BQ); BQ substrate
Method: as §1, §2

Fms kinase = Fms kinase (Homo sapiens (Human), UniProt P07333); assay: Fms kinase biochemical activity assay (AlphaScreen, biotin-(E4Y)10 phosphorylation)
Method: In one assay the biochemical activity IC50 values are determined with respect to inhibition of Fms kinase activity, where inhibition of phosphorylation of a peptide substrate is measured as a function of compound concentration. Compounds to be tested, dissolved in DMSO (1 μL), are added to a white 384-well plate (Costar #3705). Working stocks of Fms kinase (Invitrogen #PV3249), biotin-(E4Y)10 substrate (Upstate Biotech, Cat#12-440), and ATP (Sigma, Cat#A-3377) are prepared in 25 mM Hepes pH 7.5, 0.5 mM MgCl2, 2 mM MnCl2, 2 mM DTT, 0.01% BSA, and 0.01% Tween-20. All components are added to the 384-well plate for a final concentration of 1 ng/well Fms, 30 nM biotin-(E4Y)10 (Upstate Biotechnology) and 100 μM ATP in a volume of 20 μL. Each sample is at 5% DMSO. The plate is then incubated for 20 minutes at 30° C. Just before use, working stocks of donor and acceptor beads from the AlphaScreen PY20 Detection Kit (PerkinElmer, Cat#676601M) are prepared in 25 mM Hepes pH 7.5, pH 7.4, 100 mM EDTA, 0.01% BSA. To stop the reaction, the plate is uncovered in the dark and 5 μL of Donor Beads solution (Streptavidin beads) is added to each well. The plate is incubated at room temperature for 20 minutes. Five microliters of Acceptor Beads solution (PY20 coated beads) are then added to each well. The final concentration of each bead is 10 μg/mL. The plates are incubated at room temperature for 60 minutes. Fluorescence signal is recorded on the Envision reader. […] The signal vs. compound concentration is used to determine the IC50.

c-Kit kinase = c-Kit kinase (Homo sapiens (Human), UniProt P10721); assay: c-Kit kinase biochemical activity assay (AlphaScreen, biotin-(E4Y)10 phosphorylation)
Method: In one assay the biochemical activity IC50 values are determined with respect to inhibition of c-Kit kinase activity, where inhibition of phosphorylation of a peptide substrate is measured as a function of compound concentration. Compounds to be tested are dissolved in DMSO to a concentration of 20 mM. These are diluted 30 μL into 120 μL of DMSO (4 mM) and 1 μL is added to an assay plate. These are then serially diluted […] (50 μL to 100 μL DMSO) for a total of 8 points. Plates are prepared such that each kinase reaction is 20 μL in 1× kinase buffer (25 mM HEPES, pH 7.5, 2 mM MgCl2, 2 mM MnCl2, 0.01% Tween-20, 1 mM DTT, 0.01% BSA), 5% DMSO and 100 μM ATP. Substrate is 30 nM biotin-(E4Y)10 (Millipore). C-kit kinase (obtained from Millipore (#14-559) or is prepared as described in U.S. Patent Application Publication Number 2009/0076046, the disclosure of which is hereby incorporated by reference as it relates to this assay) is at 0.75 ng per sample. After incubation of the kinase reaction for 1 hour at room temperature, 5 μL of donor beads (Streptavidin coated beads (Perkin Elmer Life Science) final concentration 10 μg/mL) in stop buffer (25 mM Hepes pH 7.5, 100 mM EDTA, 0.01% BSA) is added, the sample is mixed and incubated for 20 minutes at room temperature before adding 5 μL of acceptor beads (PY20 coated beads (Perkin Elmer Life Science) final concentration 10 μg/mL) in stop buffer. The samples are incubated for 60 minutes at room temperature and the signal per well is read on Envision reader. […] The signal vs. compound concentration is used to determine the IC50.

CYP2D6 = CYP2D6 (Homo sapiens (Human), UniProt P10635); assay: CYP enzyme inhibition, fluorescent substrate; settings: read-out: Cyp IC50 (μM) 2D6
Method: as §1, §2

Sequence of CYP3A4(BQ) (P08684 whole entry): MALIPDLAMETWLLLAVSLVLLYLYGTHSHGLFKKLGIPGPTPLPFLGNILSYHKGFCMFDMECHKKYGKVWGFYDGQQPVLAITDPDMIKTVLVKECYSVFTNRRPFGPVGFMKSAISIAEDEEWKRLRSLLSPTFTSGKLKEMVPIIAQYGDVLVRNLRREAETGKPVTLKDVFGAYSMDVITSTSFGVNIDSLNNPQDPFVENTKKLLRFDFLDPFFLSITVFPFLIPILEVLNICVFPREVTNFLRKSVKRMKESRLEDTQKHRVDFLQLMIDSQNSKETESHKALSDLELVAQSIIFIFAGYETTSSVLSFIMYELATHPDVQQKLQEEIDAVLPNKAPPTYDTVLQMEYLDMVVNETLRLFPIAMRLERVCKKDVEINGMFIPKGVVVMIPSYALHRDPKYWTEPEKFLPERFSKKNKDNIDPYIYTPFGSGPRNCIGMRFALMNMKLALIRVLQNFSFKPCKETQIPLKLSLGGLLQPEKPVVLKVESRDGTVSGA
Sequence of CYP3A4(BFC) (P08684 whole entry): as above
Sequence of CYP1A2 (P05177 whole entry): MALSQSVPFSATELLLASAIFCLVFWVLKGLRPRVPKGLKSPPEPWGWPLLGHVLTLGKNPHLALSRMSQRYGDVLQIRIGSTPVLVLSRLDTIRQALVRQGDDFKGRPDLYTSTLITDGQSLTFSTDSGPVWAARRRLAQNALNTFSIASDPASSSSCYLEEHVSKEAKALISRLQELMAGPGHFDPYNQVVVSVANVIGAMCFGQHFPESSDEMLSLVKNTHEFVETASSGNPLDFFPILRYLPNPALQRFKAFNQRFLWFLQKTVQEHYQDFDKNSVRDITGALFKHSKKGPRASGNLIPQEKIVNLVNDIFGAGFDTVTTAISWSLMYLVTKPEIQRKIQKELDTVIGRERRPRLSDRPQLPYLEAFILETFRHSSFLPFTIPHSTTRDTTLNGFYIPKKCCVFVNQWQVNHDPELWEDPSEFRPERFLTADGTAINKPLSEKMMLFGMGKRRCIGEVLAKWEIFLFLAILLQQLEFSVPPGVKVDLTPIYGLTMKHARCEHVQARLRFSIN
Sequence of CYP2C19 (P33261 whole entry): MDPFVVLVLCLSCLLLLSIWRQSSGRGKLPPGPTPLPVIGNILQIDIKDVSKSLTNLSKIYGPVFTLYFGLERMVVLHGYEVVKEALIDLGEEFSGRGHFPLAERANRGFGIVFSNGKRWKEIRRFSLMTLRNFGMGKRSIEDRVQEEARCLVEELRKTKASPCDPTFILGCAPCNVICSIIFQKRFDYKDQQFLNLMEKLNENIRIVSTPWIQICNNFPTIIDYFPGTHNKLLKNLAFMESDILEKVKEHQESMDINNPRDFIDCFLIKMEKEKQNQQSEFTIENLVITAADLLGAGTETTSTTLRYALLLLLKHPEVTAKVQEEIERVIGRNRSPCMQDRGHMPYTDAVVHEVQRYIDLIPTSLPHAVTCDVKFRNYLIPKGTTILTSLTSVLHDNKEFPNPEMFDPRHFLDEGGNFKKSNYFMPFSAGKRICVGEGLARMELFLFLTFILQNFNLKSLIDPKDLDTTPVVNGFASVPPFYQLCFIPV
Sequence of Fms kinase (P07333 20-972): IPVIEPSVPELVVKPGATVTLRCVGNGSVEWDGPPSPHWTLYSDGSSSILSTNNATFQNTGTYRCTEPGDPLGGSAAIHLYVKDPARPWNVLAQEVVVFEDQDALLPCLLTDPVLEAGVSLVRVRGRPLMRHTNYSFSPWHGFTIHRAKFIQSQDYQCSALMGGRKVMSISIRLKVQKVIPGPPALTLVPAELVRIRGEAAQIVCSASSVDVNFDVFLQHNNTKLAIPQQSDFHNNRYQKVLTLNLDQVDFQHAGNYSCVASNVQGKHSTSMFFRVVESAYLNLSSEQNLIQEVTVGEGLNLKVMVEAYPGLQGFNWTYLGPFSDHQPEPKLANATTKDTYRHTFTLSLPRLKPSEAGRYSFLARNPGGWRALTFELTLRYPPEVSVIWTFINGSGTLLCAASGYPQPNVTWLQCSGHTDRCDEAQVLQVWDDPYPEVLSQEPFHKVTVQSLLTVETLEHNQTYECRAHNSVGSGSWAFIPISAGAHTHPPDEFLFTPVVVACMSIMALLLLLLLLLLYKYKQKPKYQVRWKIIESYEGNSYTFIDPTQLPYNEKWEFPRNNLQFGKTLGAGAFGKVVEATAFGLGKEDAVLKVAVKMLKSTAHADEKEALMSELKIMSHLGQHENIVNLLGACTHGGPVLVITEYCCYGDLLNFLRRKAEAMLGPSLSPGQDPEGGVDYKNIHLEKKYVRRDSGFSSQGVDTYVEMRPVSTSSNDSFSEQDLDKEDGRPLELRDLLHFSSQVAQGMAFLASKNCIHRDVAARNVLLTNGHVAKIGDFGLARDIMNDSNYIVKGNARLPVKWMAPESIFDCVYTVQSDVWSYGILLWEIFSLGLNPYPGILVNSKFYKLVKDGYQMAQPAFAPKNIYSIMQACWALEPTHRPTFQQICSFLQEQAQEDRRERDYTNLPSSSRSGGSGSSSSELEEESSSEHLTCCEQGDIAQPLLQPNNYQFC
Sequence of CYP2C9 (P11712 whole entry): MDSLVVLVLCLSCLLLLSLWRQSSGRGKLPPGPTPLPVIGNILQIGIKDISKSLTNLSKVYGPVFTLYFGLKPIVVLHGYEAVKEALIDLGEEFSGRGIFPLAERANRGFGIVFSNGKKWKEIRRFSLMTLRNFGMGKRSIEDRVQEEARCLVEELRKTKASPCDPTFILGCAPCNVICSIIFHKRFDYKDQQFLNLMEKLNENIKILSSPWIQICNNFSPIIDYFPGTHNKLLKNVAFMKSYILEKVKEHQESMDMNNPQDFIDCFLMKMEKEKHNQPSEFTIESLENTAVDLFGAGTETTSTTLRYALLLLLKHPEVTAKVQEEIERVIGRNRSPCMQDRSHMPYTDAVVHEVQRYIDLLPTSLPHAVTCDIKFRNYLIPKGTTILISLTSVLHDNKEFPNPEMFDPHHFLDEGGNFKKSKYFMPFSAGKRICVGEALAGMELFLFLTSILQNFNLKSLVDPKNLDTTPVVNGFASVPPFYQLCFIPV
Sequence of c-Kit kinase (P10721 26-976): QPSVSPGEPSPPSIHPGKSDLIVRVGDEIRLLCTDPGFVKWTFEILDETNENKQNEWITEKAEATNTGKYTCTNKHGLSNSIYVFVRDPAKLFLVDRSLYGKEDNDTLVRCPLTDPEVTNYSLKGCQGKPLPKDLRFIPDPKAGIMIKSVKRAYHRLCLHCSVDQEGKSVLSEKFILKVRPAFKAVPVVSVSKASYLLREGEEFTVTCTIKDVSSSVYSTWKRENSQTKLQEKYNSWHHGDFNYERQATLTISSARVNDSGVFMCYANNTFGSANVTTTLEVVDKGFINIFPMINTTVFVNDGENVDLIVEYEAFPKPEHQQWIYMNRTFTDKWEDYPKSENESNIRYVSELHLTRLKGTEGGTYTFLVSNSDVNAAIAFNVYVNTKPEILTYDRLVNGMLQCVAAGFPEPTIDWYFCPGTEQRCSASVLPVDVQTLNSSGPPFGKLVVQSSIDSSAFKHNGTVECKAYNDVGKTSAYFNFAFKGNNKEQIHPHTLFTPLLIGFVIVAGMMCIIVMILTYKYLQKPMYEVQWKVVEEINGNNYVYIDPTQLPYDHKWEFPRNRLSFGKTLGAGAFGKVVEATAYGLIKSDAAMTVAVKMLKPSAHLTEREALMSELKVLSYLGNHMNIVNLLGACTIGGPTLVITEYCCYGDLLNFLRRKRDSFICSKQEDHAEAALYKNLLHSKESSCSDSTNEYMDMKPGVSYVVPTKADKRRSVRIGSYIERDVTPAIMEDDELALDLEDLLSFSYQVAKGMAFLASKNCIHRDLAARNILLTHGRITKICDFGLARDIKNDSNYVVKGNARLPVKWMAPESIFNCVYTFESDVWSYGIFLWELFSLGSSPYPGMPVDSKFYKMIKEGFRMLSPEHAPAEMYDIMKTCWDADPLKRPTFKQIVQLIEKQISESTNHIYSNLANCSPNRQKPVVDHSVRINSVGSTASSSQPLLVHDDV
Sequence of CYP2D6 (P10635 whole entry): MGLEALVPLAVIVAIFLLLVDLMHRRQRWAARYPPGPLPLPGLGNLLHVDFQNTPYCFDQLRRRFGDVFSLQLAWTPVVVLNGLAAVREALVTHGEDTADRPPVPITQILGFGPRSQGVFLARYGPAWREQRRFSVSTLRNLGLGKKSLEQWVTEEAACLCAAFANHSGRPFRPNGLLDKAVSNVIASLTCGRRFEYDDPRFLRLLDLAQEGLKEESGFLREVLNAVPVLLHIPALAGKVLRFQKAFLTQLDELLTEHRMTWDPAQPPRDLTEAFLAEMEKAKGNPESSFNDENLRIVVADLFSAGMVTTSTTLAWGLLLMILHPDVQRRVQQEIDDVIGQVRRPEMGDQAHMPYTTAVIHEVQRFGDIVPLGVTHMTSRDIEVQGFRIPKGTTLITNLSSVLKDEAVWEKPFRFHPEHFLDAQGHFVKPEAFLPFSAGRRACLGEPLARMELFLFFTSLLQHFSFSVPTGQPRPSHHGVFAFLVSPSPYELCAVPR

| IC50 (CYP2C19; read-out: Cyp IC50 (μM) 2C19) [µM] | IC50 (CYP2C9; read-out: Cyp IC50 (μM) 2C9) [µM] | IC50 (CYP3A4(BFC); read-out: Cyp IC50 (μM) 3A4(BFC), BFC substrate) [µM] | Biochemical activity selectivity (Kit IC50/Fms IC50) (Fms kinase; Kit IC50/Fms IC50, biochemical) | IC50 (Fms kinase; read-out: Biochemical activity (IC50 μM) Fms) [µM] | IC50 (c-Kit kinase) [µM] | SMILES | turbidity threshold (L, M, H) 1.4 [1] | turbidity threshold (L, M, H) 4.5 [1] | turbidity threshold (L, M, H) 6.8 [1] | turbidity threshold (L, M, H) 7.4 [1] | IC50 (CYP1A2) [µM] | IC50 (CYP3A4(BQ)) [µM] | IC50 (CYP2C19) [µM] | IC50 (CYP2C9) [µM] | IC50 (CYP2D6) [µM] | IC50 (CYP3A4(BFC)) [µM] |
| --- | --- | --- | --- | --- | --- | --- | --- | --- | --- | --- | --- | --- | --- | --- | --- | --- |
| < 5 | < 5 | < 5 | >20 | < 0.1 | > 0.1 | Cc1cnc2[nH]cc(Cc3ccc(NCc4ccnc(C)c4)nc3F)c2c1 [Compound P-2067, [6-Fluoro-5-(5-methyl-1H-pyrrolo[2,3-b]pyridin-3-ylmethyl)-pyridin-2-yl]-(2-methyl-pyridin-4-ylmethyl)-amine] | H (high solubility if the threshold concentration is >250 μM) | H (high solubility if the threshold concentration is >250 μM) | H (high solubility if the threshold concentration is >250 μM) | H (high solubility if the threshold concentration is >250 μM) | > 10 | > 10 |  |  |  |  |
|  |  |  |  |  |  | COc1ncc(F)cc1CNc1ccc(Cc2c[nH]c3ncc(C)cc23)c(F)n1 [Compound P-2049, (5-Fluoro-2-methoxy-pyridin-3-ylmethyl)-[6-fluoro-5-(5-methyl-1H-pyrrolo[2,3-b]pyridin-3-ylmethyl)-pyridin-2-yl]-amine] | M (moderate solubility if the threshold concentration is 31.3 μM to 250 μM) | L (low solubility if the threshold concentration is <31.3 μM) | L (low solubility if the threshold concentration is <31.3 μM) | L (low solubility if the threshold concentration is <31.3 μM) | > 10 | > 10 | 5 to 10 | 5 to 10 | > 10 | 5 to 10 |
